Measurements taken from publication PMC12152147, “DDB1 engagement defines the selectivity of S656 analogs for cyclin K degradation over CDK inhibition” (EMBO Reports, 2025).
Where “and” joins values, the source holds several entries; their conditions need not be identical. Identical values can stand only once. Like-named read-outs stand apart in the source and are kept apart here.

How the values were obtained:
primary AML specimens = assay: Dose-response assays in primary AML specimens (6 days, CellTiterGlo); type: cell-based, human; details: Homo sapiens, 144 h, 6 days, read-out: IC50
Procedure: Freshly thawed primary AML specimens were used for chemical screens. Cryopreserved cells were thawed at 37 °C in IMDM containing 20% FBS and DNase I (100 μg/mL). Cells were resuspended in IMDM supplemented with 15% BIT (BSA, insulin, transferrin; StemCell Technologies), 100 ng/mL SCF, 50 ng/mL FLT3L, 20 ng/mL IL3, 20 ng/mL G-CSF, 10^−4 mol/L b-mercaptoethanol, gentamicin (50 μg/mL), ciprofloxacin (10 μg/mL), SR1 (500 nmol/L) and UM729 (500 nmol/L). Cells were plated in 384-well white plates, 5000 cells per well in 50 μL. Compounds were dissolved in DMSO, diluted in media immediately before use and added to seeded cells at the unique concentration of 1 μM. Control wells received DMSO (0.1%) only. Cell viability was evaluated after 6 days in culture using the CellTiterGlo assay according to the manufacturer’s instruction. Percentage of inhibition for dose response curves was calculated as 100 – (100 × (mean luminescence [compound]/mean luminescence [DMSO])). Dose response curves were generated using nonlinear regression in GraphPad Prism version.
Dose-response assays in primary AML specimens were performed as in chemical screen (see above) with the exception that compounds were tested in serial dilution (8 dilutions, 1:4, 10 μM down to 0.5 nM). Dose-response assays in OCI-AML5 cell line were conducted similarly with the following modifications: 300 cells per well were seeded in 50 μL of cell line media and cell viability was evaluated after 4 days in culture.

[1] = tested on: OCI-AML5 cells expressing shRNAs targeting CDK1, 2, 4, 7, 9, cyclin K; assay: Dose response in OCI-AML5 expressing shRNAs targeting CDK1, 2, 4, 7, 9, cyclin K or control; type: cell-based, H. sapiens
cyclin KeGFP = assay: Cyclin KeGFP reporter system (eGFP/mCherry MFI by flow cytometry);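 for % degradation cyclin K-eGFP: 10 μM compound for 3 h relative to DMSO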; type: cell-based, H. sapiens
In short: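 Degradation read as eGFP-to-mCherry MFI ratio relative to DMSO controls, from flow cytometry of the selected G7 clone of OCI-AML5 cells transduced with the cyclin KeGFP reporter.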

OCI-AML5 cells = assay: Dose-response proliferative assay in OCI-AML5 (4 days, CellTiterGlo); type: cell-based, H. sapiens; details: Homo sapiens
In short: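 Viability assessed after 4 days of compound exposure at 37 °C, 5% CO2. Compounds tested as 8 dilutions (1:4, 10 μM to 0.5 nM) on 300 OCI-AML5 cells/well grown in αMEM with 10% heat-inactivated FBS and 10 ng/mL GM-CSF.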

[2] = tested on: OCI-AML5 cells expressing shRNA targeting CUL4A or CUL4B; assay: Dose response in OCI-AML5 expressing shRNAs targeting CUL4A, CUL4B or control; type: cell-based, H. sapiens; details: ratio of IC50 in shCUL4A vs shCTRL OCI-AML5 cells
CDK1 = target: T1, CDK1 (Homo sapiens, UniProt P06493); assay: CDK1 in vitro kinase activity, single concentration 1 μM; type: biochemical; details: single concentration 1 μM
T1 construct: purchased BPS Bioscience 79597
Procedure: (§1) Kinase activity was assessed using the kinase assay kits from BPS Bioscience for CDK1, CDK9 and CDK12 with Kinase Glo MAX in duplicates. Compounds were tested at a single concentration of 1 μM for CDK1 and CDK9 activity, and in a dilution ranging from 0.64 nM to 50 μM for CDK12 activity. Chemiluminescence was read using the Neo Synergy BioTek plate reader.

CDK9/CyclinT = target: T2, CDK9/CyclinT (Homo sapiens, UniProt P50750); assay: CDK9/CyclinT in vitro kinase activity, single concentration 1 μM; type: biochemical; details: single concentration 1 μM
T2 construct: purchased BPS Bioscience 79628
Procedure: as §1

T1 sequence (P06493 whole entry): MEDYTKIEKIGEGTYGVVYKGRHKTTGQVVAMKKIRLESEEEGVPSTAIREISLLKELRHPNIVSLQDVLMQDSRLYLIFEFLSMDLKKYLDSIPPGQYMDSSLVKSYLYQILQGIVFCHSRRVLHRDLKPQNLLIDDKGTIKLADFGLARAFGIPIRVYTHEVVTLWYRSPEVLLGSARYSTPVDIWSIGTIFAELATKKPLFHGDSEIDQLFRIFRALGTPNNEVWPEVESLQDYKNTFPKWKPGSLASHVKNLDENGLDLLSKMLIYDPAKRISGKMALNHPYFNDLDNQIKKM
T1 sequence (P14635 whole entry partner): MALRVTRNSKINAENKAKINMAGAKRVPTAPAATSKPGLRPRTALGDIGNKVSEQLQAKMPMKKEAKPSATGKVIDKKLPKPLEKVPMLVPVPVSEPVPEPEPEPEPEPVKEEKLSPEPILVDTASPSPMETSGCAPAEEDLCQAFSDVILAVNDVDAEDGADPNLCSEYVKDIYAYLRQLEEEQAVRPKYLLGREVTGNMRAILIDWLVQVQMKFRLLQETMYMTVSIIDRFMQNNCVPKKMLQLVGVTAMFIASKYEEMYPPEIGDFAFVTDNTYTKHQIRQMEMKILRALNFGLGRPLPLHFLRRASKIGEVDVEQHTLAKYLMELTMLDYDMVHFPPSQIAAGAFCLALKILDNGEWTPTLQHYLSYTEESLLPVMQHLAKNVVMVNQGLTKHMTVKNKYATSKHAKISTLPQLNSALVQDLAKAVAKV
T2 sequence (P50750 whole entry): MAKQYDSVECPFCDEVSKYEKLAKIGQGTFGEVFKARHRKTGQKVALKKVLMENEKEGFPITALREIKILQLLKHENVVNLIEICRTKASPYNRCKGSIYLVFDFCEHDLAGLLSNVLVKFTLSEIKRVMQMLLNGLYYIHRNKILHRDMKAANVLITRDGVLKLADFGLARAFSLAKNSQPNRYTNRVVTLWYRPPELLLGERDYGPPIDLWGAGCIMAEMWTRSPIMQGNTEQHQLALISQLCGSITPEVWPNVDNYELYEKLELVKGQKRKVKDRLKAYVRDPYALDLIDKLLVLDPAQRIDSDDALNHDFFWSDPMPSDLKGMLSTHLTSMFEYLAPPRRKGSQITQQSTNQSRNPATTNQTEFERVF
T2 sequence (O60563 whole entry partner): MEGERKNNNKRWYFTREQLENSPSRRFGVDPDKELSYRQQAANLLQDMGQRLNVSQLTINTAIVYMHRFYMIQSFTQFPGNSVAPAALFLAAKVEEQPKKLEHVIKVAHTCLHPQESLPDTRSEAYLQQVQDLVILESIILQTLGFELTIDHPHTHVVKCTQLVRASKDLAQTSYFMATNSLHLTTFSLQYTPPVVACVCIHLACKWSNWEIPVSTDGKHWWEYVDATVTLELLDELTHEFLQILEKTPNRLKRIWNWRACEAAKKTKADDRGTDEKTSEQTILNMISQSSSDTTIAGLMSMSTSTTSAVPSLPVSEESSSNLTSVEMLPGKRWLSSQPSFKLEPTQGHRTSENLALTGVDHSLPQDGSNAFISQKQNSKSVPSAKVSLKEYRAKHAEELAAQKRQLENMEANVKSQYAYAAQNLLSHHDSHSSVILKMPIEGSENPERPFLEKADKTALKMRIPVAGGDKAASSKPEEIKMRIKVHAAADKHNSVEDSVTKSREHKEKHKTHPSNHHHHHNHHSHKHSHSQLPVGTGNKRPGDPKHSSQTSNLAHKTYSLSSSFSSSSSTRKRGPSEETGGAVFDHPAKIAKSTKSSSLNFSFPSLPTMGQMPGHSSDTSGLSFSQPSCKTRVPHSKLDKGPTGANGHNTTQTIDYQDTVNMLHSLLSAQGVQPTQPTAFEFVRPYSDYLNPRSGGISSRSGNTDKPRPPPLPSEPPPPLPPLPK

Cn1cc(-n2cnc3c(NCc4nc5cc(Cl)c(Cl)cc5[nH]4)nc(N4CCOCC4)nc32)cn1 [SR4835]
IC50 (primary AML specimens; primary AML specimen 03H109): 0.0239 µM
IC50 (primary AML specimens; primary AML specimen 04H055): 0.0379 µM
IC50 (primary AML specimens; primary AML specimen 04H096): 0.0378 µM
IC50 (primary AML specimens; primary AML specimen 04H138): 0.0462 µM
IC50 (primary AML specimens; primary AML specimen 05H113): 0.0373 µM
IC50 (primary AML specimens; primary AML specimen 05H149): 0.0455 µM
IC50 (primary AML specimens; primary AML specimen 05H193): 0.0429 µM
IC50 (primary AML specimens; primary AML specimen 06H088): 0.0402 µM
IC50 (primary AML specimens; primary AML specimen 06H117): 0.0343 µM
IC50 (primary AML specimens; primary AML specimen 06H151): 0.0285 µM
IC50 (primary AML specimens; primary AML specimen 07H003): 0.0441 µM
IC50 (primary AML specimens; primary AML specimen 07H131): 0.099 µM
IC50 (primary AML specimens; primary AML specimen 07H144): 0.0319 µM
IC50 (primary AML specimens; primary AML specimen 07H155): 0.0559 µM
IC50 (primary AML specimens; primary AML specimen 08H018): 0.0413 µM
IC50 (primary AML specimens; primary AML specimen 08H021): 0.0298 µM
IC50 (primary AML specimens; primary AML specimen 08H056): 0.0705 µM
IC50 (primary AML specimens; primary AML specimen 08H063): 0.125 µM
IC50 (primary AML specimens; primary AML specimen 08H085): 0.0389 µM
IC50 (primary AML specimens; primary AML specimen 08H108): 0.0417 µM
IC50 (primary AML specimens; primary AML specimen 08H118): 0.0335 µM
IC50 (primary AML specimens; primary AML specimen 09H016): 0.0353 µM
IC50 (primary AML specimens; primary AML specimen 09H070): 0.124 µM
IC50 (primary AML specimens; primary AML specimen 10H014): 0.038 µM
IC50 (primary AML specimens; primary AML specimen 10H046): 0.0388 µM
IC50 (primary AML specimens; primary AML specimen 10H107): 0.0371 µM
IC50 (primary AML specimens; primary AML specimen 10H127): 0.048 µM
IC50 (primary AML specimens; primary AML specimen 10H161): 0.0422 µM
IC50 (primary AML specimens; primary AML specimen 10H174): 0.0382 µM
IC50 (primary AML specimens; primary AML specimen 11H008): 0.0457 µM
IC50 (primary AML specimens; primary AML specimen 11H019): 0.041 µM
IC50 (primary AML specimens; primary AML specimen 11H170): 0.141 µM
IC50 (primary AML specimens; primary AML specimen 11H217): 0.0488 µM
IC50 (primary AML specimens; primary AML specimen 11H232): 0.0398 µM
IC50 (primary AML specimens; primary AML specimen 12H033): 0.0614 µM
IC50 (primary AML specimens; primary AML specimen 12H055): 0.0447 µM
IC50 (primary AML specimens; primary AML specimen 12H148): 0.0444 µM
IC50 (primary AML specimens; primary AML specimen 13H053): 0.0559 µM
IC50 (primary AML specimens; primary AML specimen 15H045): 0.0284 µM
IC50 (primary AML specimens; primary AML specimen 17H065): 0.0591 µM
IC50 ([1]; Homo sapiens, OCI-AML-5, 96 h, read-out: IC50, sh CDK1, OCI-AML5, 4 days): 0.0252 µM
IC50 ([1]; Homo sapiens, OCI-AML-5, 96 h, read-out: IC50, sh CDK2, OCI-AML5, 4 days): 0.0228 µM
IC50 ([1]; Homo sapiens, OCI-AML-5, 96 h, read-out: IC50, sh CDK4, OCI-AML5, 4 days): 0.0174 µM
IC50 ([1]; Homo sapiens, OCI-AML-5, 96 h, read-out: IC50, sh CDK7, OCI-AML5, 4 days): 0.0202 µM
IC50 ([1]; Homo sapiens, OCI-AML-5, 96 h, read-out: IC50, sh CDK9, OCI-AML5, 4 days): 0.0214 µM
IC50 ([1]; Homo sapiens, OCI-AML-5, 96 h, read-out: IC50, sh Cyclin K, OCI-AML5, 4 days): 0.0057 µM
IC50 ([1]; Homo sapiens, OCI-AML-5, 96 h, read-out: IC50, sh ctrl, OCI-AML5, 4 days): 0.0212 µM
Class ([1]; class from shRNA IC50 profile and cyclin K-eGFP degradation): 1
IC50 ([1]; read-out: IC50, sh CDK1, OCI-AML5, 4 days): 0.0227 µM and 0.0359 µM
IC50 ([1]; read-out: IC50, sh CDK2, OCI-AML5, 4 days): 0.0211 µM and 0.0334 µM
IC50 ([1]; read-out: IC50, sh CDK4, OCI-AML5, 4 days): 0.0207 µM and 0.0178 µM
IC50 ([1]; read-out: IC50, sh CDK7, OCI-AML5, 4 days): 0.0237 µM and 0.0345 µM
IC50 ([1]; read-out: IC50, sh CDK9, OCI-AML5, 4 days): 0.0173 µM and 0.0167 µM
IC50 ([1]; read-out: IC50, sh Cyclin K, OCI-AML5, 4 days): 0.00831 µM and 0.00507 µM
IC50 ([1]; read-out: IC50, sh ctrl, OCI-AML5, 4 days): 0.0179 µM and 0.0159 µM
MFI of cyclin KeGFP over mCherry (cyclin KeGFP; OCI-AML5 G7 clone, 3 h, 10 μM, normalized to DMSO (=100)): 16.0 and 15.3 and 15.4
% degradation cyclin K-eGFP (cyclin KeGFP; cyclin K-eGFP reporter): 84%
IC50 (OCI-AML5 cells; OCI-AML-5, OCI-AML5 cells, read-out: IC50 in AML5): 0.018 µM
Ratio shCUL4A/shCTRL [2]: 4.77
inhibition at 1 µM (CDK1): 0%
inhibition at 1 µM (CDK9/CyclinT): 0%

CN(CCOCCOCCN)c1ccc(CC(=O)Nc2ncc(SCc3cccnc3)s2)cc1 [UOM-005790]
IC50 (OCI-AML5 cells; OCI-AML-5, 96 h, 4 days incubation, read-out: IC50 OCI-AML5): 0.68 µM
